Measurements published in ChEMBL document CHEMBL1201862, “PubChem BioAssay data set” (2004).
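Cells were grown in 96-well plates and exposed to each compound for 48 hours at five concentrations; endpoints were interpolated linearly between bracketing concentrations, or set to the highest concentration if not reached. At the GI50, growth is halved.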 The source made the active and inactive calls. Cut-off read from the data, not from the text of the source: active = GI50 up to about 1.1 µM and inactive = higher.

Columns and labels:
Experiment in all cases: inhibition of tumour cell growth, NCI panel, 48 h
MDA-MB-231 = system: MDA-MB-231
DU-145 = system: DU-145
BT-549 = system: BT-549

Row | SMILES | GI50 (MDA-MB-231) | GI50 (DU-145) | GI50 (BT-549)
1 | O=c1c2ccccc2n2c(S)nnc2n1-c1ccccc1 | > 100 µM (inactive) | > 100 µM (inactive) | –
2 | Oc1ccccc1/C=N/Nc1nc(N/N=C/c2ccccc2O)nc(N/N=C/c2ccccc2O)n1 | > 100 µM (inactive) | > 100 µM (inactive) | 85.3 µM (inactive)
3 | COc1cc2nc(-c3cccs3)nc(Cl)c2cc1OC | > 100 µM (inactive) | > 100 µM (inactive) | > 100 µM (inactive)
4 | CC1=NN(C(=O)CC(=O)Nc2cccc(C)c2)C(=O)C1/N=N\c1ccc(S(=O)(=O)c2ccc(/N=N/C3C(=O)N(C(=O)CC(=O)Nc4cccc(C)c4)N=C3C)cc2)cc1 (stereo not drawn) | > 100 µM (inactive) | > 100 µM (inactive) | > 100 µM (inactive)
5 | CC(=O)OCC1OC(O[C@@H]2C[C@H]3C(C)(C)[C@H](OC(C)=O)CC[C@]3(C)[C@H]3CC[C@@]45C[C@H](O)C[C@H](C)[C@@H]4CC=C5[C@@]32C)C(O)C(O)C1O (stereo partly drawn) | 2.39 µM (inactive) | 8.28 µM (inactive) | 5.3 µM (inactive)
6 | Nc1cc2[nH]c(=O)c3cc(Cl)ccc3c2cc1Cl | 14.1 µM (inactive) | 12 µM (inactive) | > 100 µM (inactive)
7 | CC1(C)O[C@@H](CBr)C[C@H](C[C@H]2C[C@@H](O)C[C@@H](CCOCc3ccccc3)O2)O1 | 40.3 µM (inactive) | 25.4 µM (inactive) | –
8 | O=C1/C(=C/c2ccc([N+](=O)[O-])cc2)C(=O)N(c2ccccc2)C1c1ccccc1 (stereo not drawn) | > 10 µM (inactive) | > 10 µM (inactive) | > 10 µM (inactive)
9 | CC(=O)Nc1cc(C(=O)Nc2cc(C(=O)Nc3cc(C(=O)Nc4cc(C(=O)Nc5cc(C(=O)NCCC(=O)NCCCN(C)C)n(C)c5)n(C)c4)n(C)c3)n(C)c2)n(C)c1 | > 100 µM (inactive) | > 100 µM (inactive) | –
10 | O=C1NC(=S)N/C1=C/c1c(-c2ccccc2)[nH]c2ccccc12 | 13.7 µM (inactive) | – | 12.6 µM (inactive)
11 | CCN(CC)CCOc1ccc(N2Cc3cc(OC)c(OC)cc3C2=O)cc1 | > 100 µM (inactive) | > 100 µM (inactive) | > 100 µM (inactive)
12 | Cc1ccc(O)c(-c2csc(NCN3CCN(CNc4nc(-c5cc(C)ccc5O)cs4)CC3)n2)c1 | > 100 µM (inactive) | > 100 µM (inactive) | > 100 µM (inactive)
13 | COc1ccc(C(C)NNC(=O)c2ccncc2)c(OC)c1 (stereo not drawn) | > 100 µM (inactive) | > 100 µM (inactive) | > 100 µM (inactive)
14 | CC(C)(C)C(=O)C(CC(=O)c1ccccc1)C(=O)C(C)(C)C | > 100 µM (inactive) | > 100 µM (inactive) | –
15 | C1=CC2C=CC(C=C1)P2c1ccccc1 (stereo not drawn) | > 100 µM (inactive) | > 100 µM (inactive) | > 100 µM (inactive)
16 | CC(=O)N1c2ccccc2C2=NN=C(N(C)C)SC21 (stereo not drawn) | 1.89 µM (inactive) | 1.58 µM (inactive) | 9.35 µM (inactive)
17 | COc1ccc(C(SCC(N)C(=O)O)(c2ccc(OC)cc2)c2ccc(OC)cc2)cc1 (stereo not drawn) | 13.2 µM (inactive) | > 10 µM (inactive) | 12.8 µM (inactive)
18 | CC(=O)Oc1ccn2nc(C)c(Br)c2c1Br | 23 µM (inactive) | 59.4 µM (inactive) | 26 µM (inactive)
19 | N#CC(C#N)=C1C(=O)NC(N)=C1C#N | > 100 µM (inactive) | > 100 µM (inactive) | > 100 µM (inactive)
20 | O/N=C(/C(Cl)=C(Cl)Cl)C(Cl)Cl | 19.2 µM (inactive) | 29.6 µM (inactive) | 21.3 µM (inactive)
21 | O=C1C(N2CCOCC2)=C(Cl)C(=O)c2ncccc21 | 2.49 µM (inactive) | > 6.73 µM (inactive) | > 10 µM (inactive)
22 | Oc1ccc2c(c1)CCc1c-2n(CCN2CCOCC2)c2ccc(O)cc12 | 49.7 µM (inactive) | 33 µM (inactive) | 31.3 µM (inactive)
23 | CN1CCCC2C(c3ccccc3)C(C3=NCCCC3)C(c3ccccc3)CC21 (stereo not drawn) | 51.2 µM (inactive) | > 100 µM (inactive) | 33.3 µM (inactive)

Row | SMILES | GI50 (MDA-MB-231) | GI50 (DU-145) | GI50 (BT-549)
24 | CCCN(C(=O)c1ccccc1)C(C#N)c1ccc(C(C#N)N(CCC)C(=O)c2ccccc2)cc1 (stereo not drawn) | 66.1 µM (inactive) | 77.6 µM (inactive) | 48.4 µM (inactive)
25 | Cc1ccc(/N=N/c2ccc(O)c(CN(C)C)c2)cc1 | 20.6 µM (inactive) | 17.8 µM (inactive) | 23.1 µM (inactive)
26 | Cn1c(=O)[nH]n(-c2ccc3ccccc3c2)c1=O | > 100 µM (inactive) | > 100 µM (inactive) | > 100 µM (inactive)
27 | O=C1CCN2c3ccccc3[C@H]3Cc4cccc(c4[C@@H]2C3)CCO1 | 83 µM (inactive) | 68.4 µM (inactive) | 57.8 µM (inactive)
28 | C=C1CC/C=C(/C(=O)O)CC[C@H]2[C@@H]1CC2(C)C | > 100 µM (inactive) | > 100 µM (inactive) | > 100 µM (inactive)
29 | COc1cc2nc3c(=C(C#N)C#N)c4ccccc4n3c(=O)c2cc1OC | > 100 µM (inactive) | > 100 µM (inactive) | > 100 µM (inactive)
30 | CCO/N=C\c1ccc2oc(-c3ccccc3)cc(=O)c2c1 | 0.557 µM (active) | 0.502 µM (active) | 1.06 µM (active)
31 | Nc1nc(=O)n(C2OC(CO)C(O)C2O)c2ncc(-c3ccc(-c4ccccc4)cc3)nc12 (stereo not drawn) | 21 µM (inactive) | > 100 µM (inactive) | > 100 µM (inactive)
32 | CCOC(=O)C1(C/C=C/CCl)CCCC1=O (stereo not drawn) | 16.6 µM (inactive) | 31.1 µM (inactive) | 18.2 µM (inactive)
33 | COC(=O)c1ccccc1NC(=S)NN(C)C | > 100 µM (inactive) | > 100 µM (inactive) | > 100 µM (inactive)
34 | Cc1nc(Nc2ccccc2Cl)sc1C(=O)CC(=O)C(=O)Nc1c(Cl)cccc1Cl | 13.6 µM (inactive) | 27 µM (inactive) | 24.2 µM (inactive)
35 | CCOC(=O)CCC(NC(=O)c1ccc(Nc2nc3cc(C(F)(F)F)ccc3nc2-c2ccccc2)cc1)C(=O)OCC (stereo not drawn) | 20.3 µM (inactive) | 24.5 µM (inactive) | 25.2 µM (inactive)
36 | CC1(C)OC[C@@H](/C=C\CCO[Si](c2ccccc2)(c2ccccc2)C(C)(C)C)N1C(=O)c1ccccc1 | 10.9 µM (inactive) | 18.8 µM (inactive) | 18.5 µM (inactive)
37 | CC1=CC(=O)N(n2c(Cc3ccc(Cl)cc3)n[nH]c2=O)C1=O | 46.3 µM (inactive) | > 100 µM (inactive) | 35.3 µM (inactive)
38 | COc1ccc(C2CCc3c(cnc4nc(N)nc(N)c34)C2)cc1 (stereo not drawn) | 40.5 µM (inactive) | 37.4 µM (inactive) | 44.7 µM (inactive)
39 | Cc1cc(Br)c(O)c(-c2cscn2)c1 | – | – | 10.9 µM (inactive)
40 | O=C(/C(=C/c1cccs1)c1ccccc1)c1ccccc1 | 23.4 µM (inactive) | > 100 µM (inactive) | > 100 µM (inactive)
41 | CN(C)CCCn1nc(N)c2nc3cc(Cl)ccc3nc21 | 58.3 µM (inactive) | 54.8 µM (inactive) | > 100 µM (inactive)
42 | O=S(=O)(O)c1ccc2cccc(/N=N\c3c(O)ccc4ccccc34)c2c1 | > 100 µM (inactive) | > 100 µM (inactive) | > 100 µM (inactive)
43 | O=C(O)Cn1ccc(=O)c2ccc([N+](=O)[O-])cc21 | 28.8 µM (inactive) | > 100 µM (inactive) | > 100 µM (inactive)
44 | COc1cc2c(cc1OC)C(=O)/C(=C/c1cc(C)cc(C)c1)C2 | 0.143 µM (active) | 0.198 µM (active) | 11.3 µM (inactive)
45 | COc1ccc2c(c1)/C(=C\c1c(Cl)n(-c3ccccc3)c3ccccc13)C(=O)N2 | 13.4 µM (inactive) | 5.89 µM (inactive) | 10.7 µM (inactive)
